A short description of data set [1]: Oral bioavailability in rat. It counts as ADME, organism-based. Conditions: in vivo.
The nature of data set [2]: Plasma half-life was determined in rats. Format: ADME, organism-based. Conditions: rat, read-out: Elimination half-life (converted).
The species named for data set [3] is Rattus norvegicus. The data set is described as follows: Vasorelaxant potency determined by inhibition of methoxamine-contracted rat aorta. Format: functional.
Data set [4] is filed under the species Rattus norvegicus. The data set is described as follows: Anti-ischemic potency determined as concentration required for increase in time to contracture in globally ischemic rat hearts. It counts as functional.
The nature of data set [5]: Ratio between EC25 and IC50 values was determined.
For data set [6], the species on record is Rattus norvegicus. The data set is described as follows: Anti-ischemic potency determined as concentration required for increase in time to contracture in globally ischemic rat hearts 10 uM; No significant activity. It counts as functional.

Activity calls are given as the source filed them.

For `CC1(C)Oc2ccc(C#N)cc2[C@@H](NC(=NC#N)Nc2ccc(Cl)cc2)[C@@H]1O`, in data set [1], the bioavailability (in general, the share of a dose that reaches the circulation, judged against a reference dose that is usually intravenous) was 61%. The half-life (usually the time needed for the level to fall by half in the phase considered) in data set [2] is 7 h.

Turning to `CC1(C)Oc2ccc(C#N)cc2[C@@H](/N=C(\NC#N)Nc2ccc(O)cc2)[C@@H]1O`, the half-inhibitory concentration (IC50) (usually the midpoint of a concentration-inhibition curve) in data set [3] (Rattus norvegicus, Aorta) came to 2.2 µM. The EC25 (as a rule, the concentration at which the effect reaches the 25% level) in data set [4] was determined as 33.4 µM. For the same compound, in data set [5], the Ratio was determined as 15.2.

In the case of `CC1(C)Oc2ccc(C#N)cc2C(N2CCCC2=O)C1O` (stereo unspecified) [CROMAKALIM], the IC50 in data set [3] (Rattus norvegicus, Aorta) worked out at 0.032 µM. In data set [4], the EC25 stood at 8.9 µM. Further, the Ratio in data set [5] turned out to be 278.

With `CC1(C)Oc2ccc(C#N)cc2[C@@H](/N=C(\S)Nc2ccccc2)[C@@H]1O`, inhibition in data set [3] (Rattus norvegicus, Aorta) was half-maximal at 1.7 µM (IC50). Besides, the EC25 in data set [4] was found to be 7.7 µM. The Ratio in data set [5] came out at 4.5.

Compound `CCC(C)(C)/N=C(\NC#N)N[C@@H]1c2cc(C#N)ccc2OC(C)(C)[C@H]1O` showed an EC25 in data set [4] of 20.1 µM. The Ratio in data set [5] was 0.7.

In data set [3] (Rattus norvegicus, Aorta), `CC1(C)Oc2ccc(C#N)cc2[C@@H](/N=C(\NC#N)Nc2ccc(C(F)(F)F)cc2)[C@@H]1O` came in with an IC50 of 8.1 µM. Also, in data set [4], the EC25 was found to be 13.4 µM. In data set [5], the Ratio stood at 1.7.

Turning to `CC1(C)Oc2ccc(C#N)cc2[C@@H](/N=C(\NC#N)Nc2ccccc2)[C@@H]1O` (stereo in doubt; 12) [listing 1 of 2 here], the Ratio in data set [5] was determined as 4.7.

`CC1(C)Oc2ccc(C#N)cc2[C@@H](/N=C(\NC#N)Nc2ccc(Cl)cc2)[C@@H]1O` gave an IC50 in data set [3] (Rattus norvegicus, Aorta) of 1.8 µM. Besides, in data set [4], the EC25 amounted to 2.5 µM. In data set [5], the Ratio came to 1.4.

`CC1(C)Oc2ccc(C#N)cc2[C@@H](/N=C(\NC#N)Nc2ccc(F)cc2)[C@@H]1O` registered a concentration for half-maximal inhibition (IC50) in data set [3] (Rattus norvegicus, Aorta) of 1.4 µM. In data set [1], this compound yielded a bioavailability of 64%. Also, in data set [4], the concentration for an effect of 25% (EC25) is 3.5 µM. The half-life in data set [2] was 1.7 h. Also, the Ratio in data set [5] is 2.5.

As for `CC1(C)Oc2ccc([N+](=O)[O-])cc2[C@@H](/N=C(\NC#N)Nc2ccccc2)[C@@H]1O`, in data set [3] (Rattus norvegicus, Aorta), inhibition was half-maximal at 2 µM (IC50). The EC25 in data set [4] was found to be 7.2 µM. Besides, in data set [5], the Ratio is 3.6.

Turning to `CC1(C)Oc2ccccc2[C@@H](/N=C(\NC#N)Nc2ccccc2)[C@@H]1O`, in data set [3] (Rattus norvegicus, Aorta), inhibition was half-maximal at 72.7 µM (IC50). Further, the EC25 entry in data set [6] is “inactive”.

In data set [3], `CC1(C)Oc2ccc(C#N)cc2[C@@H](/N=C(\NC#N)Nc2ccccc2)[C@@H]1O` (stereo in doubt; 12) [listing 2 of 2 here] gave a half-inhibitory concentration (IC50) of 1.3 µM. This compound registered a bioavailability in data set [1] of 70%. Further, the concentration for an effect of 25% (EC25) in data set [4] amounted to 6.1 µM. In addition, the half-life in data set [2] is 1.8 h.

Regarding `CC1(C)Oc2ccc(C#N)cc2[C@@H](/N=C(\NC#N)Nc2ccccc2)[C@@H]1O` (stereo in doubt; 13), the concentration for half-maximal inhibition (IC50) in data set [3] was 4.2 µM. Further, in data set [4], the EC25 is more than 30 µM.

As for `CC1(C)Oc2ccc(C#N)cc2[C@@H](/N=C(\NC#N)Nc2ccccc2)[C@@H]1O` (stereo in doubt; 5) [listing 1 of 2 here], the concentration for an effect of 25% (EC25) in data set [4] came out at 11 µM.

As to `CC1(C)Oc2ccc(C#N)cc2[C@@H](NC(=O)Nc2ccccc2)[C@@H]1O`, the concentration for an effect of 25% (EC25) in data set [4] was found to be 5.1 µM.

Regarding `C#Cc1ccc2c(c1)[C@@H](/N=C(\NC#N)Nc1ccccc1)[C@H](O)C(C)(C)O2`, in data set [3] (Rattus norvegicus, Aorta), the IC50 came to 5.4 µM. In addition, the concentration for an effect of 25% (EC25) in data set [4] was more than 30 µM.

`CC1(C)Oc2ccc(C#N)cc2[C@@H](/N=C(\NC#N)Nc2ccccc2)[C@@H]1O` (stereo in doubt; 5) [listing 2 of 2 here]: the Ratio in data set [5] came to 7.9.

The values are drawn from ChEMBL document CHEMBL1126547, “Cardioselective anti-ischemic ATP-sensitive potassium channel openers” (J Med Chem, 1993).
